Columns and labels:
[1] = cancer patients, QS-21 dose 100~200 μg, cited from earlier work
[2] = Toxicology studies of the present product; conditions: poly (I:C) adsorbed onto the mixed liposomes
Description: In order to maintain stability of physical properties of products, the mixed liposomes containing the cationic liposomes and the neutral liposomes (consisting of […]) were chosen in the present disclosure to adsorb poly (I:C). Poly (I:C) adsorbed by the intramuscular administered mixed liposomes could be passively or actively delivered to antigen presenting cells (APCs), to limit its interaction with non-phagocytic cells, and regulate systemic secretion of cytokines generated thereby.

Row | Molecule | erythema and induration at the injection site ([1]; most patients) | dose-limiting toxicity [1] | safety [2]
1 | CCC(C)C(CC(O)CC(=O)O[C@@H]1[C@H](O)[C@H](C)O[C@H](OC(=O)[C@@H]2CC(C)(C)C[C@@H]3C4=CCC5[C@@]6(C)CC[C@H](O[C@@H]7O[C@H](C(=O)O)[C@@H](O)[C@H](O[C@H]8OC[C@@H](O)[C@H](O)[C@H]8O)[C@H]7O[C@@H]7O[C@H](CO)[C@H](O)[C@H](O)[C@H]7O)[C@@](C)(C=O)[C@@H]6CC[C@@]5(C)[C@]4(C)C[C@@H](O)C32)[C@H]1O[C@@H]1O[C@@H](C)[C@H](O[C@H]2OC[C@@H](O)[C@H](O[C@H]3OC[C@](O)(CO)[C@H]3O)[C@H]2O)[C@@H](O)[C@H]1O)OC(=O)CC(O)CC(O[C@@H]1O[C@@H](CO)[C@H](O)[C@H]1O)C(C)CC (stereo partly drawn) [QS-21, Quillaja saponaria saponin 21] | 2-10 cm | No dose-limiting toxicity | 
2 | polyinosinic: polycytidylic acid [poly (I:C)] |  |  | can effectively improve its safety

From patent publication US20250325655A1, “VACCINE ADJUVANT, AND PREPARATION METHOD THEREFOR AND USE THEREOF” (CHENGDU MAXVAX BIOTECHNOLOGY LLC, priority 2021, published 2025)
